Laboratory results as given in PMC12990037, “Discovery of Two Structurally Distinct Classes of Inhibitors Targeting the Nuclease MUS81 and Enhancing Efficacy of Chemotherapy in Cancer Cells” (Journal of Medicinal Chemistry, 2026).

What was measured:
Assay type in all cases: cell-based
U2OS cells [1] = assay: Annexin V apoptotic assay; settings: 3 days
Protocol: Given these promising findings, we further investigated the specificity of MU262 and MU876 and potential short-term cytotoxicity. To mirror the treatment duration used in BIR and HR assays, U2OS cells were exposed to the inhibitors or siRNA for 3 days.
U2OS WT cells (300,000) were seeded in a 6-well plate, a subset of them was treated with either control siRNA or siRNA targeting MUS81. After adhesion, cells were treated with the respective inhibitors for 72 h during which CPT (100 μM, Sigma-Aldrich) was added for the last 2 h. Cells were harvested, washed in ice-cold PBS, and collected by centrifugation at 500g for 5 min. Cells were simultaneously stained with FITC-labeled annexin V antibody (556419, Becton Dickinson) and PI (5 μL) at room temperature for 15 min, protected from light. Stained cells were analyzed using a BD FACSVerse flow cytometer (Becton Dickinson) and FlowJo software (BD Life Sciences). At least 20,000 cells were used for each measurement, and experiments were performed in duplicates.

U2OS cells [2] = assay: γH2AX foci immunofluorescence, 72 h treatment
Protocol: 6 MUS81 inhibition induces persistent DNA damage leading to reduced cell survival. (A) U2OS cells were treated with DMSO, cisplatin as a positive control, control or MUS81-targeting siRNA, MU262, MU876, and their negative control counterparts at the indicated concentrations for 72 h. Representative images show staining of a DNA damage marker γH2AX in green with counterstaining of DAPI in blue. The concentration of all inhibitors shown in (A) is 2.5 μM. (B) DNA damage was assessed by quantifying γH2AX foci per nucleus from (A) using CellProfiller software. The graph represents percentage (%) of cells with ≥20 γH2AX foci per nucleus across different concentrations of inhibitors. n = 3; error bars represent s.d. (C) Indicated number of U2OS cells was transfected with a nontargeting siRNA (siCon) or MUS81-targeting siRNA (siMUS81) seeded for a CFA. […] (D) Quantification of (C), error bars represent s.d.; ****p <0.0001 (unpaired, two-tailed t-test). […] (F) Quantification of (E) using a nonlinear regression fitting model. n = 3. […] (H) Quantification of (G) using a nonlinear regression fitting model. n = 3.
U2OS, CAL51 WT, and CAL51 MUS81^–/– cells (10,000) were seeded in a 96-well plate 24 h before the treatment. […] The γH2AX foci were detected and quantified using CellProfiler (Broad Institute of MIT and Harvard). The analyzed data were plotted in RStudio software using R programming language.

U2OS BIR-GFP cells = assay: I-SceI-based BIR repair reporter assay; settings: Homo sapiens, 72 h, normalized to DMSO
Protocol: (§1) 3 MUS81 inhibitors suppress HR and BIR. (A) I-SceI-based BIR repair efficiency was measured in U2OS BIR-GFP cells treated with DMSO, two different siRNAs targeting MUS81, or the indicated concentrations of MU262 and MU876, and their control analogues for 72 h. The percentage of repair was normalized to the DMSO-treated control (D). n = 3. Error bars represent standard deviation (s.d.); ****p <0.0001 (unpaired, two-tailed t-test). […] (C,D) I-SceI-based HR (C) and NHEJ (D) repair efficiency was measured using U2OS DR-GFP and EJ5-GFP cells, respectively, following treatment with DMSO, MU262,MU876, or their control analogues for 72 h. The percentage of repair was normalized to the DMSO-treated control. n = 3. Error bars represent s.d.; *p <0.05, **p <0.01, ****p <0.0001 (unpaired, two-tailed t-test).
(§2) Reporter DR-GFP and […] U2OS cells along with BIR-GFP cells were transfected with 2.5 μg of I-SceI-expressing pCAGGS vector and subsequently treated with MUS81 inhibitors at the indicated concentrations. After transfection (72 h), cells were trypsinized and resuspended in 3% BSA in PBS. GFP fluorescence detection was carried out using a BD FACSVerse flow cytometer, and the data were analyzed with FlowJo software (BD Life Sciences). Data presented in the graph were normalized to the DMSO-treated sample.

EJ5-GFP cells = assay: I-SceI-based NHEJ repair reporter assay; settings: 72 h
Protocol: as §1, §2

| SMILES | apoptosis (Annexin V staining) (U2OS cells [1]) | γH2AX (DNA damage) foci (U2OS cells [2]) | IC50 (U2OS BIR-GFP cells) | effect on NHEJ (EJ5-GFP cells) |
| --- | --- | --- | --- | --- |
| CCc1nn2c(O)c(-c3nc4ccccc4[nH]3)nnc2c1-c1ccc(F)cc1 [Compound 18, 3-(1H-Benzo[d]imidazole-2-yl)-7-ethyl-8-(4-fluorophenyl)pyrazolo[5,1-c][1,2,4]triazin-4-ol] | no increase in apoptosis | significantly increased the number of DNA damage foci in a concentration-dependent manner | 1530 nM | no negative effect |
| Cc1cc(=O)[nH]c(-n2nc(-c3ccccc3)cc2NC(=O)c2cc(-c3ccccc3)on2)n1 [Compound 32, N-(1-(4-Methyl-6-oxo-1,6-dihydropyrimidin-2-yl)-3-phenyl-1H-pyrazol-5-yl)-5-phenylisoxazole-3-carboxamide] | no increase in apoptosis | significantly increased the number of DNA damage foci in a concentration-dependent manner | 240 nM | no negative effect |
